Like-named read-outs stand apart in the source and are kept apart here.
Experiments:
[1] = test system: HepG2 cells; details: cited from earlier work
[2] = test system: THLE-Null and THLE-3A4 cells; details: In vitro Assay; ref Gustafsson 2014; cited from earlier work
[3] = test system: isolated mouse liver mitochondria; details: In vitro Assay; ref Porceddu 2012; cited from earlier work
[4] = test system: HepG2 C3A spheroid, BSEP, Glu/Gal in HepG2 cells, bioactivation; details: cited from earlier work
[5] = plasma free fraction; cited from earlier work
[6] = ref Chen 2011; cited from earlier work
[7] = Plasma free fraction (fu) and unbound Cmax (Cmax,u); type: in vitro ADME, human; details: unbound plasma Cmax
[8] = test system: PHH spheroids; details: cited from earlier work
[9] = test system: THLE or HepG2 cells, isolated mitochondria, BSEP; details: cited from earlier work
[10] = test system: hLiMTs; details: cited from earlier work
[11] = read-out: Human plasma Cmax; total plasma Cmax.tot, median of 9 literature references; cited from earlier work
[12] = test system: hLiMTs; experiment: Combined HCI (HCS) and cellular ATP 3D assay in hLiMTs; details: for AC50 / minimal effective concentration: Homo sapiens
[13] = cited from earlier work
[14] = test system: PHH; details: In vitro Assay; ref Albrecht 2019; cited from earlier work
[15] = test system: HepG2; set-up: method as in Albrecht 2019; details: In vitro Assay; ref Albrecht 2019; cited from earlier work
[16] = test system: PHH; details: cited from earlier work
[17] = test system: rBsep; details: In vitro Assay; ref Dawson 2012; cited from earlier work
[18] = cited from earlier work; remark: listed apart in the source
[19] = test system: HepaRG spheroids; experiment: Combined HCI (HCS) and cellular ATP 3D assay in HepaRG spheroids; details: for AC50 / minimal effective concentration: Homo sapiens
[20] = test system: HepG2 cells, primary human hepatocytes; details: In vitro Assay; ref Garside 2014; cited from earlier work
[21] = test system: primary human hepatocytes, NIH3T3 fibroblasts, BSEP, CYP3A4; details: cited from earlier work
[22] = In vitro Assay, ref Persson 2013
[23] = Modeled in vitro assays (cytotoxicity, mitochondrial dysfunction, BSEP), ref Aleo et al. 2019
[24] = In vitro Assay, ref Proctor 2017
[25] = Microtissue model structural based (HCI), combined HCS and ATP, MEC < 25 × Cmax.tot cut-off
[26] = In vitro Assay, ref Schadt 2015

- Human plasma Cmax,u [7]: 0.048 µM
- hLiMTs <25x Avg Cmax ATP ([12]; hLiMTs, ATP endpoint, cut-off <25x Avg Cmax): +ve
- hLiMTs <100x Avg Cmaxu ATP ([12]; hLiMTs, ATP endpoint, cut-off <100x Avg Cmaxu): -ve
- hLiMTs <25x Avg Cmax HCS ([12]; hLiMTs, HCS endpoints, cut-off <25x Avg Cmax): +ve
- hLiMTs <100x Avg Cmaxu HCS ([12]; hLiMTs, HCS endpoints, cut-off <100x Avg Cmaxu): -ve
- hLiMTs <25x Avg Cmax All ([12]; hLiMTs, all endpoints (ATP and HCS), cut-off <25x Avg Cmax): +ve
- hLiMTs Cmax max All ([12]; hLiMTs, all endpoints, Cmax max used): +ve
- hLiMTs Cmax min All ([12]; hLiMTs, all endpoints, Cmax min used): +ve
- hLiMTs <10 uM All ([12]; hLiMTs, all endpoints, cut-off <10 uM): -ve
- hLiMTs <100x Avg Cmaxu All ([12]; hLiMTs, all endpoints, cut-off <100x Avg Cmaxu): -ve
- HepaRG <25x Avg Cmax ATP ([19]; HepaRG, ATP endpoint, cut-off <25x Avg Cmax): +ve
- HepaRG <100x Avg Cmaxu ATP ([19]; HepaRG, ATP endpoint, cut-off <100x Avg Cmaxu): -ve
- HepaRG <25x Avg Cmax HCS ([19]; HepaRG, HCS endpoints, cut-off <25x Avg Cmax): +ve
- HepaRG <100x Avg Cmaxu HCS ([19]; HepaRG, HCS endpoints, cut-off <100x Avg Cmaxu): -ve
- HepaRG <25x Avg Cmax All ([19]; HepaRG, all endpoints (ATP and HCS), cut-off <25x Avg Cmax): +ve
- HepaRG Cmax max All ([19]; HepaRG, all endpoints, Cmax max used): +ve
- HepaRG Cmax min All ([19]; HepaRG, all endpoints, Cmax min used): +ve
- HepaRG <10 uM All ([19]; HepaRG, all endpoints, cut-off <10 uM): -ve
- HepaRG <100x Avg Cmaxu All ([19]; HepaRG, all endpoints, cut-off <100x Avg Cmaxu): -ve
SMILES: Cc1ccc(C(=O)c2cc(O)c(O)c([N+](=O)[O-])c2)cc1 [tolcapone, reference compound]
- Cluser analysis [1, 22]: -VE
- Structural based (HCI) [1, 22]: +VE
- DILI in vitro assay prediction, Persson (2013) ([1]; Structural based (HCI), HepG2, ref Persson et al. 2013): -VE
- THLE-Null [2]: +VE
- THLE-Null/3A4 [2]: -VE
- in vitro data EC2<=1x Cmax [3]: +VE
- in vitro data EC20<=2uM [3]: -VE
- Bayesian Machine Learning DILI prediction, Williams (2019) ([4]; Bayesian modeling, ref Williams et al. 2019): +VE
- Bayesian Machine Learning ([4]; In vitro Assay, ref Williams 2019): +VE
- fu [5]: 0.001
- DILI Score (FDA) (1-8) [6]: 8
- hLiMTs ATP <20 x Cmax ([8]; In vitro Assay, ref Vorrink 2018): +VE (IC20 < 20 × Cmax.tot cut-off)
- DILI in vitro assay prediction, Vorrink (2018) ([8]; PHH spheroids, ATP, 14 days, IC20 < 20 × Cmax.tot, ref Vorrink et al. 2018): +VE (IC20 < 20 × Cmax.tot cut-off)
- Partition Hybrid HRM Score ([9]; In vitro Assay, ref Aleo 2019): +VE
- Ro2 Hybrid HRM Score ([9]; In vitro Assay, ref Aleo 2019): +VE
- Partition Hybrid HRM Score ≥4, Aleo (2019) [9, 23]: +VE (Partition Hybrid HRM Score ≥4)
- Partition Hybrid HRM Score ≥8, Aleo (2019) [9, 23]: +VE (Partition Hybrid HRM Score ≥8)
- Rule of Two hybrid HRM Score ≥3, Aleo (2019) [9, 23]: +VE (Rule of Two hybrid HRM Score ≥3)
- Rule of Two hybrid HRM Score ≥8, Aleo (2019) [9, 23]: +VE (Rule of Two hybrid HRM Score ≥8)
- hLiMTs ATP <100uM [10, 24]: +VE (IC50 threshold of 100 µM)
- hLiMTs/100xCmax, Proctor (2017) ([10]; hLiMTs, ATP, IC50 < 100 × Cmax.tot, ref Proctor et al. 2017): +VE (IC50 < 100 × Cmax.tot)
- hLiMTs/100uM, Proctor (2017) ([10]; hLiMTs, ATP, IC50 threshold 100 µM, ref Proctor et al. 2017): +VE (IC50 threshold of 100 µM)
- Cmax [11]: 47.6 µM
- AC50 ([12]; read-out: ATP endpoint AC50): 161 µM
- minimal effective concentration ([12]; read-out: ATP endpoint MEC): 114 µM
- AC50 ([12]; read-out: HCS endpoint AC50): 60.8 µM
- minimal effective concentration ([12]; read-out: HCS endpoint MEC): 24.1 µM
- DILI prediction hLiMTs (HCS-MEC) [12, 25]: +VE (MEC < 25 × Cmax.tot cut-off)
- DILI severity category (Chen et al. [2016]) ([13]; LTKB DILIrank category, ref Chen et al. 2016): Most
- DILI severity category (Chen 2016) ([13]; human DILI classification, LTKB DILIrank, ref Chen et al. 2016): Most
- DILI severity category ([13]; human DILI severity, ref Chen et al.): Most
- DILI +VE (5-8), DILI -VE (-4) ([13]; ref Chen 2016): +VE
- DILI severity category ([13]; ref Chen 2016): vMost-DILI-Concern
- Cytotoxicity PHH 48 hrs [14]: +VE
- Cytotoxicity HepG2 48 hrs [15]: +VE
- PHH/100xCmax, Proctor (2017) ([16]; 2D PHH, ATP, IC50 < 100 × Cmax.tot, ref Proctor et al. 2017): +VE (IC50 < 100 × Cmax.tot)
- PHH/100uM, Proctor (2017) ([16]; 2D PHH, ATP, IC50 threshold 100 µM, ref Proctor et al. 2017): -VE
- PHH ATP <100uM [16, 24]: +VE (IC50 threshold of 100 µM)
- Inhibition of rBsep cutoff<1& cmax u>.2 [17]: +VE
- Inhibition of rBsep cutoff<3 [17]: +VE
- Assigned DILI category ([18]; Chen et al. 2016 or literature alignment, ref Chen et al. 2016): 3
- In vivo DILI ([18]; ref Albrecht 2019): +VE
- In vivo DILI ([18]; ref Aleo 2019): +VE
- In vivo DILI ([18]; ref Dawson 2012): +VE
- In vivo DILI ([18]; ref Garside 2014): +VE
- In vivo DILI ([18]; ref Gustafsson 2014): +VE
- In vivo DILI ([18]; ref Persson 2013): +VE
- In vivo DILI ([18]; ref Porceddu 2012): +VE
- In vivo DILI ([18]; ref Proctor 2017): +VE
- In vivo DILI ([18]; ref Schadt 2015): +VE
- In vivo DILI ([18]; ref Vorrink 2018): +VE
- In vivo DILI ([18]; ref Williams 2019): +VE
- AC50 ([19]; HepaRG, read-out: ATP endpoint AC50): 35.3 µM
- minimal effective concentration ([19]; HepaRG, read-out: ATP endpoint MEC): 20.5 µM
- AC50 ([19]; HepaRG, read-out: HCS endpoint AC50): 36.1 µM
- minimal effective concentration ([19]; HepaRG, read-out: HCS endpoint MEC): 21 µM
- DILI prediction HepaRG spheroids (HCS-MEC) [19, 25]: +VE (MEC < 25 × Cmax.tot cut-off)
- Cluster 1-6 +VE Assay [20]: +VE
- DILI in vitro assay prediction, Schadt (2015) ([21]; BSEP & Metabolism based, ref Schadt et al. 2015): +VE
- Cellular toxicity (3T3 cells) [21, 26]: +VE
- Combined Assay [21, 26]: +VE
- GSH adduct HML [21, 26]: +VE
- Hepatocyte cellular toxicity [21, 26]: +VE
- MitoTox 3T3 [21, 26]: -VE
- TDI CYP3A4 [21, 26]: -VE
- hBSEP inhibition [21, 26]: +VE

— PMC7395068, “The evolution of strategies to minimise the risk of human drug-induced liver injury (DILI) in drug discovery and development” (Archives of Toxicology, 2020)
